According to patent US8690874B2, “Composition and process for bone growth and repair” (Zimmer Orthobiologics, Inc., priority 2000, dated 2014):
Where “and” joins values, the source holds several entries; their conditions need not be identical. Equal entries are not always repeated. Entries after “also recorded” stand apart in the source; their conditions may differ. Where two headings read alike, the source gives them in different places.

Columns and labels:
[1] = tested on: subcutaneous rat implant model; test: Subcutaneous rat implant model, collagen/GFm sponges supplemented with calcium phosphates (Example 3/5); assay type: in vivo; conditions: for Average Mineral Mass / Average Explant Mass / Average Histology Score [0-5]: inter-animal average; for Average Mineral Mass: ash weight; for Average Explant Mass: collagen 7 mg + GFm 10 μg, additive 7 mg (50 wt. %); for Average Histology Score [0-5] / Histology score, Direct Comparison Averages [0-5]: scoring of Table 7; for Explant mass, Direct Comparison Averages / Mineral mass, Direct Comparison Average / Histology score, Direct Comparison Averages [0-5]: intra-animal comparison subset; for Explant mass, Direct Comparison Δwt. % / Histology score, Direct Comparison [%] / Mineral mass, Direct Comparison Δwt. %: relative to intra-animal collagen/GFm control; for bone quality and maturity in histological sections: photomicrographs FIG. 15, H&E/Von Kossa, toluidine blue; for effect on explant and mineral mass: versus collagen controls / other compositions
Protocol: The advantages of the rat model for product evaluation include an accelerated rate of bone induction. Visible evidence of mineralization appears in the implant within several days (˜10), with typical experiments lasting between 14 and 21 days. The testing protocol involved implantation of porous collagen (bovine tendon Type 1, 7 mg, 96 vol. % porosity) samples containing a natural mixture of bovine, osteoinductive proteins (GFm, 10 μg). […] Samples were implanted in four subcutaneous sites including the upper quadrants of the abdomen (sites 1, 2) and the upper quadrants of the dorsal thorax (sites 6, 7). The osteoinductive differences between controls and calcium phosphate supplemented samples [7 mg, 50 wt. %] were assessed using three standard test protocols: histological tissue analysis and mineral composition via x-ray and ash weight analysis (Intermedics Orthopedics/Denver, Inc. Histology protocol STM 009; Intermedics Orthopedics/Denver, Inc. Alkaline phophatase protocol STM 0024, 0026).
Samples were assessed in comparison to two different control sample populations, including: collagen sponges and collagen/GFm sponges supplemented with 50 wt % devitalized bone matrix (DVBM) additives. The collagen/GFm control samples were used as a reference for a baseline osteoinductive response. A calcium phosphate additive was considered detrimental if it either reduced the explant or mineral mass values or if it negatively influenced bone maturation. […] These samples were prepared as an alternative for demineralized bone matrix (DBM) additives. Demineralized bone matrix provides both an ideal osteoconductive matrix for cellular invasion and bone mineralization and a pooled concentration of osteoinductive proteins.
ANOVA was performed without data replications turning the analysis into an expanded pool Student-T test. Statistical significance was predicted using α<0.05. […] Compositions that had no significant influence on mass are indicated in plain text. Compositions that stimulated a statistically significant improvement in mass are indicated in bold text [Tables 5 and 6].
The quality and skeletal maturity of produced bone was assessed through histological microscopic analysis of thin, stained tissue sections. […] Thin sections (4 μm) from the explant midlines were obtained with a microtome. One section was stained with hematoxylin & eosin (H&E) and one was stained with toluidine blue to highlight important cellular details. The H&E sections were counterstained with silver nitrate (Von Kossa technique) to highlight mineralized tissue components. The histological sections were scored for quality and maturity using a scoring system, outlined in Table 7, previously developed by Sulzer Biologics according to STM-021. […]

[2] = Equilibrium solubility of calcium and phosphate ions from calcium phosphate salts; assay type: physicochemical
[3] = pH buffering potential of calcium salts; assay type: physicochemical
[4] = equilibrium solubility of the salt

| Insoluble fraction [200 mg/cc] ([2]; 200 mg/cc) [wt. %] | Equilibrium [Ca^2+] [2, 4] [µM] | Equilibrium [PO4^3−] [2, 4] [µM] | pH (buffering potential of the salt) [3] | pH (buffering potential of the salt) ([3]; listed as Hydroxyapatites) | Compound | Average Mineral Mass [1] | Average Explant Mass [1] | Average Histology Score [0-5] [1] | Explant mass, Direct Comparison Averages [1] | Mineral mass, Direct Comparison Average [1] | Histology score, Direct Comparison Averages [0-5] [1] | Explant mass, Direct Comparison Δwt. % [1] | Histology score, Direct Comparison [%] [1] | Mineral mass, Direct Comparison Δwt. % [1] | bone quality and maturity in histological sections [1] | improvement in histological score ([1]; intra-animal, relative to collagen control) | Explant mass, Direct Comparison Δwt. % ([1]; listed as 2CaO.P2O5) | Mineral mass, Direct Comparison Δwt. % ([1]; listed as 2CaO.P2O5) | effect on explant and mineral mass [1] | histological score / osteoinductive performance, statistical comparison ([1]; α<0.05) |
| --- | --- | --- | --- | --- | --- | --- | --- | --- | --- | --- | --- | --- | --- | --- | --- | --- | --- | --- | --- | --- |
| – | – | – | – | – | O=P([O-])([O-])[O-].O=P([O-])([O-])[O-].[Ca+2].[Ca+2].[Ca+2] [3CaO•P2O5 (β-TCP), tricalcium phosphate] | 8.1 mg | 80.1 mg | 1.3 | 71.6 mg | 5.7 mg | 1.3 | −26.3% wt. % | −23.9% | −31.6% wt. % | – | – | – | – | – | – |
| – | – | – | – | – | hydroxyapatite [3.33CaO.P2O5(OH)2 (Calcitek)] | – | – | – | – | – | – | +44.1 wt. % | – | +279.6 wt. % | – | – | – | – | – | – |
| – | – | – | – | – | hydroxyapatite [3.33CaO•P2O5 (HA-am)] | 26.5 mg and 29.4 mg | 129.9 mg and 117.9 mg | 1.3 and 1.4 | 120.3 mg and 140.6 mg | 27.1 mg and 30.4 mg | 1.2 and 1.7 | – | – | – | – | – | – | – | – | – |
| – | – | – | – | – | O=C([O-])[O-].[Ca+2] [CaCO3 (calcite), calcium carbonate] | 7.9 mg | 67.4 mg | 1.0 | 73.1 mg | 8.1 mg | 1.0 | −28.0% wt. % | −58.3% | −3.2% wt. % | – | – | – | – | – | – |
| – | – | – | – | – | O=P([O-])([O-])[O-].O=P([O-])([O-])[O-].[Ca+2].[Ca+2].[Ca+2] [3CaO•P2O5 (α-TCP), tricalcium phosphate] | 6.5 mg | 39.5 mg | 1.1 | 58.7 mg | 9.4 mg | 1.3 | −42.9% wt. % | −35.1% | −28.3% wt. % | – | – | – | – | – | – |
| – | – | – | – | – | hydroxyapatite [3.33CaO•P2O5 (HA-px)] | 19.8 mg | 113.5 mg | 1.4 | 124.7 mg | 21.9 mg | 2.0 | +4.5% wt. % | −26.7% | +74.3% wt. % | – | – | – | – | – | – |
| – | – | – | – | – | O=C([O-])[O-].[Ca+2] [calcium carbonates, calcium carbonate] | – | – | – | – | – | – | – | – | – | comparatively reduced | – | – | – | – | – |
| – | – | – | – | – | O=C([O-])[O-].[Ca+2] [CaCO3 (aragonite), calcium carbonate] | 10.4 mg | 69.4 mg | 1.0 | 88.6 mg | 14.5 mg | 1.0 | −27.3% wt. % | −63.9% | +3.8% wt. % | – | – | – | – | – | – |
| – | – | – | – | – | O=P([O-])([O-])OP(=O)([O-])[O-].[Ca+2].[Ca+2] [2CaO•P2O5•2H2O (CP), calcium pyrophosphate] | 20.8 mg | 126.2 mg | 2.3 | 170.3 mg | 31.5 mg | 2.3 | +99.6% wt. % | +11.1% | +163.0% wt. % | comparatively reduced in maturity but were greater than control samples | +163 wt. % | +99.6 wt. % | +263 wt. % | appreciably enhanced; also recorded: significantly enhanced explant and mineral mass values | Statistically superior improvements in histological score |
| 99.9999 | 2.2 | 1.3 | ~8.5 and ~9 | ~8 | hydroxyapatite [Ca5(PO4)3(OH) (HA)] | – | – | – | – | – | – | – | – | – | negative effect on bone ossicle maturation; also recorded: comparatively reduced | – | – | – | appreciably enhanced | – |
